Laboratory results: patent US11198869B2, “Angelman syndrome antisense treatment” (The Texas A&M University System, priority 2017, dated 2021)
pIC50: −log10 of the molar value. Where two headings read alike, the source gives them in different places. Oligonucleotides are written 5' to 3', each unit as a sugar letter and its base; * is a phosphorothioate linkage, no mark a phosphodiester; rarer units and linkages stand in square brackets, end groups in braces. Plain capitals give the bases only. l = locked nucleic acid (LNA); [5mC] = 5-methylcytosine; d = 2'-deoxy (DNA)

Legend:
UBE3A-AS [1] = experiment: UBE3A-AS steady state RNA (TaqMan qRT-PCR) in GABAergic iPSC-derived neurons; type: cell-based, human; conditions: for IC50 Ratio relative to ASO-4.4.PS.L: equivalence; for IC50 Ratio relative to ASO-4.4.PS.L / Limit Exceeded (equivalence of IC50 relative to ASO-4.4.PS.L): two one-sided tests; for Relative Potency: relative to ASO-4.4.PS.L = 1
UBE3A-AS [2] = experiment: as above; type: cell-based, human; conditions: for Cluster (hierarchical clustering of fitted dose response curves): candidate ASOs, Cluster 1 representing the 9 most potent ASOs; for 3 μM (Mean), Emax, normalized UBE3A-AS RNA level relative to vehicle / pIC50: treated 14 DIV, RNA 20 DIV; for IC50 / Relative Potency / pIC50: optimized ASOs; for IC50: 14 DIV to 20 DIV, read-out: IC50 (M), UBE3A-AS; for IC50 / Relative Potency: parallel model; for IC50 / pIC50: 3-parameter logistic; for Relative Potency: relative to ASO 4.S = 1; for pIC50: 5-point dose curve 30 nM-3 μM, full model, read-out: IC50 Estimate, UBE3A-AS
Experimental: Human-specific ASOs were then designed to target this region, which included four ASOs targeting non-polymorphic regions in human and regions conserved (100%) with macaque (Rhesus and Cynomolgus) (Table 7 and FIG. 3A). Human induced pluripotent stem cell (iPSC) neural precursor cells were differentiated into GABAergic neurons for 14 DIV and then treated with a control ASO [ASO-C (10 μM, n=3)], Topotecan [Topo (1 μM, n=2)], and six ASOs targeting UBE3A-AS [ASO-1, ASO-2, ASO-3, ASO-4, ASO-5, and ASO-6 (10 μM, n=3)]. Additionally, an ASO targeting an intronic region downstream of SNORD109B was included (ASO-7). Six days post-treatment (20 DIV), RNA was isolated from the neurons and the steady state RNA levels of UBE3A-AS and UBE3A were estimated relative to the control treatment (FIG. 3B).
The potency of ASO-4 was further examined given its effect on UBE3A-AS RNA levels. GABAergic iPSC-derived neurons were treated at 14 DIV with a 10-point ½ log dose response curve of ASO-4 and Topotecan, as a positive control and for comparisons between treatment [1 nM, 3 nM, 10 nM, 30 nM, 100 nM, 300 nM, 1 μM, 3 μM, 10 μM, and 30 μM (ASO-4, n=6; Topotecan, n=2)]. At 20 DIV, the steady state RNA levels of UBE3A-AS were measured and dose response curves fitted to estimate the IC50 and Emax (i.e., maximum UBE3A-AS inhibition) (Table 9 and FIG. 4A). […]
Additional ASOs targeting the 5′-end of UBE3A-AS were then designed to optimize the target sequences of ASO-4 (ASO-4.1, ASO-4.2, ASO-4.3, and ASO-4.4) as well as two other target regions, ASO-3 (ASO-3.1 and ASO-3.2) and ASO-6 (ASO-6.1) (Table 11). Additionally, ASO-4 was manufactured at two different vendors for comparative purposes (ASO-4.S, Sigma; ASO-4.I, Integrated DNA Technologies). Human iPSC-derived neurons (GABAergic) were treated at 14 DIV with a […] ½ log dose curve of ASO-3.1, ASO-3.2, ASO-4.S, ASO-4.I, ASO-4.1, ASO-4.2, ASO-4.3, ASO-4.4, and ASO-6.1 [30 nM, 100 nM, 300 nM, 1 μM (n=6)]. At 20 DIV, the IC50 and Emax of each ASO was estimated as described above (FIG. 5A-B and Table 12). […] No significant difference was observed between ASO-4.S and ASO-4.I.
The potency of ASO-4 and ASO-6.1 was further examined in iPSC-derived neurons at a later time point in differentiation. GABAergic iPSC-derived neurons were treated at 29 DIV with a 10-point ½ log dose response curve of ASO-4 and ASO-6.1 [1 nM, 3 nM, 10 nM, 30 nM, 100 nM, 300 nM, 1 μM, 3 μM, 10 μM, and 30 μM (n=3)]. At 35 DIV, the IC50 and Emax of each ASO was estimated as described above (FIG. 5C-D and Table 14). The dose response curves of ASO-4 and ASO-6.1 were not similar (Parallelism test: F(3,172)=22.7, p<0.0001).
GABAergic and glutamatergic induced pluripotent stem cell (iPSC) derived neural precursor cells (NRC-100-010-001 and GNC-301-030-001, Cellular Dynamics International, Madison Wis.) were differentiated into neurons according to the manufactures protocol. Briefly, neural precursor cells were thawed and resuspended in chemically defined medium and added to sterile-culture plates coated with poly-D-lysine and laminin. The medium was replaced 24 hr after plating and then one-half of the medium was replaced every 3-5 days afterwards.
For cultured iPSC-derived neurons, RNA isolation and cDNA synthesis were performed using the Cell-to-CT kit (Thermo Fisher Scientific) in a lysate volume of 55 μl.
The steady state RNA levels of target transcripts were measured using TaqMan quantitative reverse-transcription PCR (qRT-PCR) assays. Total reaction volume was 10 uL, including 2 μl of cDNA, 1× Gene Expression Master mix (4369016, Thermo Fisher Scientific, Waltham, Mass.), and 1× TaqMan primer assay (Thermo Fisher Scientific). Cycling conditions were 2 minutes at 50° C., 10 minutes at 95° C., and 40 cycles of 15 seconds at 95° C. and 1 minute at 60° C., with readings taken at the 60° C. step of every cycle. […]

[3] = Cluster 1 ASOs, 18 DIV to 24 DIV, parallel model, 4 Parameter logistic (Hill)
[4] = candidate ASOs, 18 DIV to 24 DIV
[5] = candidate ASOs, 18 DIV to 24 DIV, 4-parameter logistic (Hill)
[6] = candidate ASOs, treated 18 DIV, RNA 24 DIV, 10-point dose curve, n=2, full model, 4-parameter logistic (Hill)

Row | Substance | IC50 (UBE3A-AS [1]; [3]) [nM] | IC50 Ratio relative to ASO-4.4.PS.L (UBE3A-AS [1]; Cluster 1 ASOs) | Limit Exceeded (equivalence of IC50 relative to ASO-4.4.PS.L) (UBE3A-AS [1]; Cluster 1 ASOs) | IC50 (UBE3A-AS [1]; [6]) [nM] | IC50 (UBE3A-AS [2]) [M] | pIC50 (UBE3A-AS [2]) | Relative Potency (UBE3A-AS [1]; Cluster 1 ASOs, parallel model) | 30 μM (Mean), normalized UBE3A-AS RNA level relative to vehicle (UBE3A-AS [1]; [4]) | Emax (normalized UBE3A-AS RNA level relative to vehicle) (UBE3A-AS [1]; [5]) | Cluster (hierarchical clustering of fitted dose response curves) (UBE3A-AS [2]) | 3 μM (Mean), Emax, normalized UBE3A-AS RNA level relative to vehicle (UBE3A-AS [2]) | Relative Potency (UBE3A-AS [2])
1 | A^L*G^L*A^L-a*t*g*g*c*a*c*a*t*c*t-5mC^L*T^L*T^L*G^L (lA*lG*lAdA*dT*dG*dG*dC*dA*dC*dA*dT*dC*dTl[5mC]*lT*lT*lG) [ASO-4.4.PO-1.L] | 322 | 0.88 | Lower | 226 |  |  | 0.2 | 0.1 | 0.04 | 1 |  | 
2 | U^O*A^O*G^O*A^O*A^O*t*g*g*c*a*c*a*t*c*t*C^O*U^O*U^O*G^O*G^o [ASO-4.0.PS.O] |  |  |  | 1270 |  |  |  | 0.1 | 0.06 |  |  | 
3 | U^O*A^O*G^O*A^O*A^O-t*g*g*c*a*c*a*t*c*t-C^O*U^O*U^O*G^O*G^o [ASO-4.0.PO-1.O] |  |  |  | 766 |  |  |  | 0.1 | 0.05 |  |  | 
4 | T^M*A^M*G^M*A^M*A^M*t*g*g*c*a*c*a*t*c*t*5mC^M*T^M*T^M*G^M*G^M [ASO-4.0.PS.M] | 262 | 0.86 | Lower | 300 |  |  | 0.2 | 0.05 | 0.05 |  |  | 
5 | A^L*G^L-A^L*a-t*g-g*c-a*c-a*t-c*t-5mC^L*T^L*T^L*G^L (lA*lGlA*dAdT*dGdG*dCdA*dCdA*dTdC*dTl[5mC]*lT*lT*lG) [ASO-4.4.PO-2.L] |  |  |  |  |  |  |  | 0.6 | −2.7 | 3 |  | 
6 | T^L*G^L*G^L-t*g*t*c*a*a*c*a*a*g-5mC^L*5mC^L*A^L*A^L [ASO-6.1.PO-1.L] |  |  |  | 1890 |  |  |  | 0.2 | 0.03 |  |  | 
7 | T^L*G^L-G^L*t-g*t-c*a-a*c-a*a-g*5mC^L-5mC^L-A^L*A^L [ASO-6.1.PO-2.L] |  |  |  | 734 |  |  |  | 0.4 | 0.3 |  |  | 
8 | T^M*A^M-G^M*A^M-A^M*t-g*g-c*a-c*a-t*c-t*5mC^M*T^M*T^M-G^M*G^M [ASO-4.0.PO-2.M] |  |  |  |  |  |  |  | 0.5 |  |  |  | 
9 | C^O*U^O-G^O*G^O-t*g-t*c-a*a-c*a-a*g-C^O*C^O-A^O*A^o [ASO-6.1.PO-2.O] |  |  |  |  |  |  |  | 0.3 |  |  |  | 
10 | 5mC^M*T^M*G^M*G^M*t*g*t*c*a*a*c*a*a*g*5mC^M*5mC^M*A^M*A^M [ASO-6.1.PS.M] | 153 | 0.90 | equivalent IC50 values | 147 |  |  | 0.3 | 0.02 | −0.05 |  |  | 

Now from value to substance, other results behind:

Row | IC50 (UBE3A-AS [1]; [3]) [nM] | IC50 Ratio relative to ASO-4.4.PS.L (UBE3A-AS [1]; Cluster 1 ASOs) | Limit Exceeded (equivalence of IC50 relative to ASO-4.4.PS.L) (UBE3A-AS [1]; Cluster 1 ASOs) | IC50 (UBE3A-AS [1]; [6]) [nM] | IC50 (UBE3A-AS [2]) [M] | pIC50 (UBE3A-AS [2]) | Substance | Relative Potency (UBE3A-AS [1]; Cluster 1 ASOs, parallel model) | 30 μM (Mean), normalized UBE3A-AS RNA level relative to vehicle (UBE3A-AS [1]; [4]) | Emax (normalized UBE3A-AS RNA level relative to vehicle) (UBE3A-AS [1]; [5]) | Cluster (hierarchical clustering of fitted dose response curves) (UBE3A-AS [2]) | 3 μM (Mean), Emax, normalized UBE3A-AS RNA level relative to vehicle (UBE3A-AS [2]) | Relative Potency (UBE3A-AS [2])
11 | 177 | 0.90 | equivalent IC50 values | 166 |  |  | 5mC^M*T^M*G^M*G^M-t*g*t*c*a*a*c*a*a*g-5mC^M*5mC^M*A^M*A^M [ASO-6.1.PO-1.M] | 0.3 | 0.04 | −0.02 |  |  | 
12 |  |  |  | 130000 |  |  | U^O*A^O-G^O*A^O-A^O*t-g*g-c*a-c*a-t*c-t*C^O-U^O*U^O-G^O*G^o [ASO-4.0.PO-2.O] |  | 0.6 | −0.3 |  |  | 
13 |  |  |  | 269000 |  |  | 5mC^M*T^M-G^M*G^M-t*g-t*c-a*a-c*a-a*g-5mC^M*5mC^M-A^M*A^M [ASO-6.1.PO-2.M] |  | 0.3 | −1.2 |  |  | 
14 | 278 | 0.87 | Lower | 278 |  |  | T^M*A^M*G^M*A^M*A^M-t*g*g*c*a*c*a*t*c*t-5mC^M*T^M*T^M*G^M*G^M [ASO-4.0.PO-1.M] | 0.2 | 0.05 | 0.02 |  |  | 
15 |  |  |  |  | 1.24e-06 | 5.97 | A^O*G^O*A^O*A^O*t*g*g*c*a*c*a*t*c*t*C^O*U^O*U^O*G^O*G^O [ASO-4.2] |  |  |  |  | 0.31 | 1.21
16 | 281 | 0.85 | Lower | 362 |  |  | T^L*G^L*G^L*t*g*t*c*a*a*c*a*a*g*5mC^L*5mC^L*A^L*A^L [ASO-6.1.PS.L] | 0.2 | 0.04 | −0.07 |  |  | 
17 |  |  |  |  | 2.04e-06 | 5.68 | A^O*G^O*A^O*A^O*t*g*g*c*a*c*a*t*c*t*C^O*U^O*U^O*G^O [ASO-4.4] |  |  |  |  | 0.44 | 0.73
18 |  |  |  |  | 1.85e-06 | 5.73 | U^O*U^O*G^O*A^O*g*t*g*g*t*g*t*c*a*g*U^O*U^O*U^O*C^O [ASO-3.2] |  |  |  |  | 0.44 | 0.81
19 |  |  |  |  |  | 5.64 | A^O*U^O*A^O*G^O*A^O*a*t*g*g*c*a*c*a*t*c*U^O*C^O*U^O*U^O*G^O [ASO-4.1] |  |  |  |  | 0.42 | 
20 |  |  |  |  | 2.81e-06 | 5.53 | G^O*U^O*U^O*G^O*a*g*t*g*g*t*g*t*c*a*G^O*U^O*U^O*U^O*C^O [ASO-3.1] |  |  |  |  | 0.51 | 0.53
21 |  |  |  |  | 1.96e-06 | 5.69 | U^O*A^O*G^O*A^O*a*t*g*g*c*a*c*a*t*c*U^O*C^O*U^O*U^O*G^O [ASO-4.3] |  |  |  |  | 0.40 | 0.76
22 | 432 | 0.83 | Lower | 532 |  |  | C^O*U^O*G^O*G^O*t*g*t*c*a*a*c*a*a*g*C^O*C^O*A^O*A^o [ASO-6.1.PS.O] | 0.1 | 0.05 | −0.2 |  |  | 
